Experimental data taken from patent US8053459B1, “Selenolopyrazole derivatives and use thereof as anticancer agents” (China Medical University, priority 2010, dated 2011).

Experiments:
[1] = test system: human renal cancer cell lines (A-498); assay: MTT cytotoxicity assay, A498; format: cell-based; conditions: for IC50: Homo sapiens, read-out: IC50 (concentration of 50% proliferation-inhibitory effect) A498, A498 cells, 48 h treatment, MTT, mean of three independent experiments; for potency in inhibiting proliferation of A498 human cancer cell line: summary statement on Table 1
Experimental: (§1) The human lung cancer cell lines (NCI-H226) and human renal cancer cell lines (A-498) were purchased from the ATCC (Manassas, Va.). The NCI-H226 and A498 cells were cultured in RPMI-1640 and DMEM medium (GIBCO) respectively, supplemented with 10% FBS, penicillin (100 unit/mL)/streptomycin (100 μg/mL) and 1% L-glutamine. All cells were grown in a humidified atmosphere containing 5% CO2 at 37° C. The cytotoxicity was assessed using 3-(4,5-dimethylthiazol-2-yl)-2,5-diphenyltetrazolium bromide (MTT) assay. NCI-H226 and A498 cells were seeded at 1×10^4 cells/well into 96-well plates. After 24 h incubation to allow for cell attachment, cells were treated with test compounds for 48 h. After treatment, cells were washed once with PBS and incubated with 1 mg/ml MTT (Sigma, St. Louis, Mo., USA) for 2 h. Then the formazan precipitate was dissolved in […] DMSO and the absorbance was measured on an ELISA reader at a best wavelength of 570 nm.

[2] = test system: human lung cancer cell lines (NCI-H226); assay: MTT cytotoxicity assay, NCI-H226; format: cell-based; conditions: for IC50: Homo sapiens, read-out: IC50 (concentration of 50% proliferation-inhibitory effect) NCI-H226, NCI-H226 cells, 48 h treatment, MTT, mean of three independent experiments; for potency in inhibiting proliferation of NCI-H226 human cancer cell line: summary statement on Table 1
Experimental: as §1

Compound	melting point [°C]	IC50 [1] [µM]	IC50 [2] [µM]	potency in inhibiting proliferation of A498 human cancer cell line [1]	potency in inhibiting proliferation of NCI-H226 human cancer cell line [2]
OCc1ccc(-c2nn(-c3ccccc3F)c3cc[se]c23)o1	178 to 181				
OCc1ccc(-c2nn(-c3ccccc3)c3[se]ccc23)o1	136 to 138				
COC(=O)c1ccc(-c2nn(-c3ccccc3Cl)c3cc[se]c23)o1 [Compound 36, 3-(5-Methoxycarbonyl-2-furyl)-1-(2-chlorophenyl)selenolo-[3,2-c]pyrazole]	134 to 136	> 100	> 100		
COC(=O)c1ccc(-c2nn(-c3cccc(Cl)c3)c3cc[se]c23)o1 [Compound 37, 3-(5-Methoxycarbonyl-2-furyl)-1-(3-chlorophenyl)selenolo-[3,2-c]pyrazole]	107 to 109	> 100	> 100		
COC(=O)c1ccc(-c2nn(-c3ccc(Cl)cc3)c3cc[se]c23)o1 [Compound 38, 3-(5-Methoxycarbonyl-2-furyl)-1-(4-chlorophenyl)selenolo-[3,2-c]pyrazole]	146 to 148	> 100	> 100		
COC(=O)c1ccc(-c2nn(-c3ccccc3F)c3cc[se]c23)o1 [Compound 39, 3-(5-Methoxycarbonyl-2-furyl)-1-(2-fluorophenyl)selenolo-[3,2-c]pyrazole]		> 100	> 100		
COC(=O)c1ccc(-c2nn(-c3ccc(F)cc3)c3cc[se]c23)o1 [Compound 40, 3-(5-Methoxycarbonyl-2-furyl)-1-(4-fluorophenyl)selenolo-[3,2-c]pyrazole]		> 100	> 100		
COC(=O)c1ccc(-c2nn(-c3ccccc3OC)c3cc[se]c23)o1 [Compound 41, 3-(5-Methoxycarbonyl-2-furyl)-1-(2-methoxyphenyl)selenolo-[3,2-c]pyrazole]	72 to 76	> 100	> 100		
COC(=O)c1ccc(-c2nn(-c3ccc(OC)cc3)c3cc[se]c23)o1 [Compound 42, 3-(5-Methoxycarbonyl-2-furyl)-1-(4-methoxyphenyl)selenolo-[3,2-c]pyrazole]	89 to 92	> 100	> 100		
Cc1cccc(-n2nc(-c3ccc(CO)o3)c3[se]ccc32)c1 [Compound 44, 3-(5-Hydroxymethyl-2-furyl)-1-5-methyl-phenylselenolo[3,2-c]pyrazole]		1.98	25	significant potency	significant potency
OCc1ccc(-c2nn(Cc3ccccc3)c3cc[se]c23)o1 [Compound 57, 1-Benzyl-3-(5-hydroxymethyl-2-furyl)selenolo[3,2-c]pyrazole]	126 to 129	0.4	1.4	significant potency	significant potency
O=C(O)CCC(=O)OCc1ccc(-c2nn(Cc3ccccc3)c3cc[se]c23)o1 [Compound 60, Succinic Acid mono-[5-(1-benzyl-selenolo[3,2-c]pyrazol-3-yl)furan-2-yl]methyl ester]	111 to 114	0.8	2.2	significant potency	significant potency
COC(=O)c1ccc(-c2nn(-c3ccccc3)c3[se]ccc23)o1 [Compound 78, 3-(5-Methoxycarbonyl-2-furyl)-1-phenylselenolo[2,3-c]-pyrazole]	167 to 169	> 100	> 100		
COC(=O)c1ccc(-c2nn(Cc3ccccc3)c3[se]ccc23)o1 [Compound 79, 1-Benzyl-3-(5-methoxycarbonyl-2-furyl)selenolo[2,3-c]pyrazole]	121 to 123	> 100	> 100		
OCc1ccc(-c2nn(Cc3ccccc3)c3[se]ccc23)o1 [Compound 81, 1-Benzyl-3-(5-Hydroxymethyl-2-furyl)selenolo[2,3-c]pyrazole]	130.2 to 131.3	0.14		significant potency	significant potency

Further lines, with some results ahead:

melting point [°C]	Compound	IC50 [1] [µM]	IC50 [2] [µM]	potency in inhibiting proliferation of A498 human cancer cell line [1]	potency in inhibiting proliferation of NCI-H226 human cancer cell line [2]
144 to 147	COC(=O)c1ccc(-c2nn(-c3ccccc3)c3cc[se]c23)o1 [Compound 34, 3-(5-Methoxycarbonyl-2-furyl)-1-phenylselenolo[3,2-c]-pyrazole]				
155 to 157	COC(=O)c1ccc(-c2nn(-c3ccccc3)c3cc(C)[se]c23)o1 [Compound 35, 3-(5-Methoxycarbonyl-2-furyl)-1-phenyl-5-methylselenolo-[3,2-c]pyrazole]				
234 to 237	O=C(O)c1ccc(-c2nn(-c3ccccc3)c3cc[se]c23)o1 [Compound 48, 3-(5-Hydroxycarbonyl-2-furyl)-1-phenylselenolo[3,2-c]pyrazole]				
236 to 239	Cc1cc2c([se]1)c(-c1ccc(C(=O)O)o1)nn2-c1ccccc1 [Compound 49, 3-(5-Hydroxycarbonyl-2-furyl)-1-phenyl-5-methylselenolo[3,2-c]pyrazole]				
130 to 131	COC(=O)c1ccc(-c2nn(Cc3ccccc3)c3cc[se]c23)o1 [Compound 55, 1-Benzyl-3-(5-methoxycarbonyl-2-furyl)selenolo[3,2-c]-pyrazole]				
142 to 145	COC(=O)c1ccc(-c2nn(Cc3ccccc3)c3cc(C)[se]c23)o1 [Compound 56, 1-Benzyl-3-(5-methoxycarbonyl-2-furyl)-5-methylselenolo[3,2-c]pyrazole]				
147 to 148	Cc1cc2c([se]1)c(-c1ccc(CO)o1)nn2Cc1ccccc1 [Compound 58, 1-Benzyl-3-(5-hydroxymethyl-2-furyl)-5-methylselenolo[3,2-c]pyrazole]				
243 to 244	O=C(O)c1ccc(-c2nn(Cc3ccccc3)c3cc[se]c23)o1 [Compound 59, 1-Benzyl-3-(5-hydroxycarbonyl-2-furyl)selenolo[3,2-c]pyrazole]				
165 to 166	COC(=O)c1ccc(-c2nn(-c3ccccc3)c3cc[se]c23)cc1 [Compound 66, 1-Phenyl-3-(p-methoxycarbonylphenyl)selenolo[3,2-c]pyrazole]				
150 to 153	COC(=O)c1ccc(-c2nn(Cc3ccccc3)c3cc[se]c23)cc1 [Compound 67, 1-Benzyl-3-(p-methoxycarbonylphenyl)selenolo[3,2-c]pyrazole]				
133 to 134	OCc1ccc(-c2nn(-c3ccccc3)c3cc[se]c23)cc1 [Compound 68, 1-Phenyl-3-(p-hydroxymethylphenyl)selenolo[3,2-c]pyrazole]				
158 to 160	OCc1ccc(-c2nn(Cc3ccccc3)c3cc[se]c23)cc1 [Compound 69, 1-Benzyl-3-(p-hydroxymethylphenyl)selenolo[3,2-c]pyrazole]				
